Data set [1] has as its target nicotinic acetylcholine receptor (Mus musculus, UniProt P02716+P04756+P04760+P09690). To be noted: cited from earlier work.
Data set [2] deals with mice. Conditions: mice pretreated with EME 50 mg/kg, 126 mg/kg cocaine five minutes later; survivors/animals; cited from earlier work.
Data set [3] can be described thus: Brain and plasma concentrations after 10 mg/kg intraperitoneal doses (GC-MS).
Procedure: (§1) Plasma and Brain Concentrations after Intraperitoneal Doses—Twenty young adult rats in groups of four were given intraperitoneal doses of 10 mg/kg, and killed and dissected at various times after dosing. Brain and plasma concentrations were assessed by GC-MS. Samples were pre-dose, and at 1, 2, 4 and 24 hours after the dose. Each point is the mean value from four rats.
Data set [4] concerns rats. Put plainly: Morris water maze probe trial with scopolamine. Format: in vivo, rat. Conditions: for Morris water maze individual swimming trace, finding of target area: individual rat, FIGS. 1A-1C. An excerpt: The Morris water maze for rats (San Diego Instruments) uses a 70 inch diameter swimming tank, in which rats, one at a time, are placed to determine the swimming time taken to find a platform, which can be visible or submerged, and is placed randomly in the tank, with its position locatable by means of navigation in response to visible clues. A video camera is positioned to record the swimming path of the rat, and computer analysis of the path permits accurate assessment of elapsed time, distance traveled, and route taken to achieve particular objectives. This technique is used to study memory, learning and spatial working, in healthy, diseased, and drug-affected states. The test can be applied acutely (probe test) or can involve considerable training and repeat measure experimental designs. The term “latency” in the context of the Morris water maze is used to depict the relation of time taken to escape from the water (Morris R., “Development of a Water-Maze Procedure for Studying Spatial Learning in The Rat,” Journal of Neuroscience Methods 11:47-60 (1984) and Wongwitdecha et al., “Effects of Social Isolation Rearing on Learning in the Morris Water Maze,” Brain Research 715:119-124 (1996), both of which are hereby incorporated by reference in their entirety).
This was a single dose probe trial in normal healthy rats with the objective of determining whether: (a) there is an effect in raising cognitive efficiency in unimpaired rats and (b) impairment caused by scopolamine can be reversed by EME.
FIGS. 1A-1C show three individual swimming traces for rats treated with a control vehicle (FIG. 1A), a combined dose of ecgonine methyl ester (EME) (10 mg/kg) and scopolamine (1 mg/kg) (FIG. 1B), and a single dose of scopolamine (1 mg/kg) (FIG. 1C). The target area was in the “south west” or bottom left quadrant of the bath. […] This observation was significant (p<0.05).
The group results in this probe trial with vehicle (VEH), EME alone, scopolamine alone, and EME plus scopolamine in the acute dose Morris water maze experiment are shown in FIG. 2. In particular, column 1 depicts the probe test results for the vehicle, column 2 depicts probe test results for EME alone, column 3 depicts probe test results for scopolamine alone, and column 4 depicts probe test results for EME in combination with scopolamine.

A short description of data set [5]: in vivo. To be noted: rat, brain and plasma, ip, 10 mg/kg.
Procedure: as §1
Data set [6] has as its target T1, BC3H1 nicotinic acetylcholine receptor (Mus musculus, UniProt P02716+P04756+P04760+P09690).
T1 construct: endogenous in cells; host or cells: BC3H1 cells
To be noted: 100 μM carbamoylcholine, cited from earlier work.

Where [7] appears, read: range where effects of multiple Class 1 compounds were alleviated, read-out: KD(Alv).
Where [8] appears, read: read-out: KD(Alv), range where effects of multiple Class 1 compounds were alleviated.

Where “and” joins values, the source holds several entries; their conditions need not be identical. Equal entries are not always repeated. Entries after “also recorded” stand apart in the source; their conditions may differ. Where two headings read alike, the source gives them in different places.

Sequence of nicotinic acetylcholine receptor (P04756 21-457): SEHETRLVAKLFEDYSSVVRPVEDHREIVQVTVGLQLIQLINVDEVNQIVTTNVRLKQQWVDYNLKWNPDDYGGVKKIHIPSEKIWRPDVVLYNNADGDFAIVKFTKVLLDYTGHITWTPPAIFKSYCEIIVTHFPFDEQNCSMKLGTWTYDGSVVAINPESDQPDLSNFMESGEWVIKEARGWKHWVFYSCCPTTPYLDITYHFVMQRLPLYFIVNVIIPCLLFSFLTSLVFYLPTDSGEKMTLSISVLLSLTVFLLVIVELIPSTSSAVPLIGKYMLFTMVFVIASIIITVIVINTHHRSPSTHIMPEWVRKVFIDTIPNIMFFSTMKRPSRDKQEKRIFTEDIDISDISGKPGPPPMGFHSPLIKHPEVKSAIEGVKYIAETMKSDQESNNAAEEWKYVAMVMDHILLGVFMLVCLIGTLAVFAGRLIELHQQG
Sequence of nicotinic acetylcholine receptor (P09690 24-501): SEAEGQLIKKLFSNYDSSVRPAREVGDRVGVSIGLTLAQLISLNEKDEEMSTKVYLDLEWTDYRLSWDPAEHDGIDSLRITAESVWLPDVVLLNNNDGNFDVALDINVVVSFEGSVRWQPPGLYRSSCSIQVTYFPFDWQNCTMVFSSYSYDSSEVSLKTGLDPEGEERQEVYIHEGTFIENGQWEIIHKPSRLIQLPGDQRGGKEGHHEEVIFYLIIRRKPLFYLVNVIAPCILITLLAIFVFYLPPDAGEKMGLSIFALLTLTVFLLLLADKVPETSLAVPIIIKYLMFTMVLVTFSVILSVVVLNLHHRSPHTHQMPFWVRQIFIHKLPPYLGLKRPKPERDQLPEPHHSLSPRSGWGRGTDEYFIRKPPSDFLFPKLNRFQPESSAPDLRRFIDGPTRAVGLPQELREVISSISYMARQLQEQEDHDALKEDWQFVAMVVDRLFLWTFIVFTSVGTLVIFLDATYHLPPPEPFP
Sequence of nicotinic acetylcholine receptor (P04760 23-519): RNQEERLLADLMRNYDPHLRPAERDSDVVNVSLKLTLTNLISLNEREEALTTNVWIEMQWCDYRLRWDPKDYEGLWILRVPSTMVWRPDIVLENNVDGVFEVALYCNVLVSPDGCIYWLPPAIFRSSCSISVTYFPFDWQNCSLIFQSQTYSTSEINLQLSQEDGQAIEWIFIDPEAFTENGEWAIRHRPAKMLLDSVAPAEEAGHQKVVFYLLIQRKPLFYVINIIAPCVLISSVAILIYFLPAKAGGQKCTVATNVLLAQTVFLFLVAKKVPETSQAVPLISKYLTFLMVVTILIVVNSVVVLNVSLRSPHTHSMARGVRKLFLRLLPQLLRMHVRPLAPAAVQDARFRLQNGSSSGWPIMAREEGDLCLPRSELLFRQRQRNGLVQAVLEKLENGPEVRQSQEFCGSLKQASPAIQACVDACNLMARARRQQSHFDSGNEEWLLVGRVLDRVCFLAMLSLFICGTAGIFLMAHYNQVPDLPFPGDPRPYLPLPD
Sequence of nicotinic acetylcholine receptor (P02716 25-520): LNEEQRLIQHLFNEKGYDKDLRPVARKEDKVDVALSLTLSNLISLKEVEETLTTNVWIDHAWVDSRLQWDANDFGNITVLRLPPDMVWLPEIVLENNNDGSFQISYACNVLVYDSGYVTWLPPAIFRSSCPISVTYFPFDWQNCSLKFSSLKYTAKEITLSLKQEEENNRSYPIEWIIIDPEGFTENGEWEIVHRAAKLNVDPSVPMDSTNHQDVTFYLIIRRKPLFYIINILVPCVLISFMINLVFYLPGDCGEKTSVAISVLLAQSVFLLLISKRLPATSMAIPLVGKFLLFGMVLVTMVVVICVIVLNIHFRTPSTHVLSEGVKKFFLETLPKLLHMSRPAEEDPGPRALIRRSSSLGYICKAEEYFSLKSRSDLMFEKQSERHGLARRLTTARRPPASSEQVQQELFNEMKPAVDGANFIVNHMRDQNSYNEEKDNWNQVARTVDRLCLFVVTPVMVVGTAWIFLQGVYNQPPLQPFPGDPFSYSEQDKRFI
T1 sequence (P04756 21-457): as the sequence (P04756 21-457) above
T1 sequence (P09690 24-501): as the sequence (P09690 24-501) above
T1 sequence (P04760 23-519): as the sequence (P04760 23-519) above
T1 sequence (P02716 25-520): as the sequence (P02716 25-520) above

Consider `COC(=O)C1C(OC(C)=O)CC2CCC1N2C` (stereo not shown) [3.Acetoxy EME, 3-Acetoxy EME], for which, in data set [1] (setting [7]), the Kd was 3.3 µM.

Consider `COC(=O)C1C(O)CC2CCC1N2C` (stereo not shown) [EME, ecgonine methyl ester], for which the Survival result in data set [2] is “increased survival and 9/40”. The “Predicted half-life in humans” value in data set [3] (predicted from persistence in rats) was 6 to 8 h. In addition, in data set [3] (rat, 10 mg/kg IP), the “Absorption after the IP dose” value was “rapid absorption”, the “Decay of plasma concentrations” value is recorded as “biexponential decay”, the “Time of maximal brain concentration” value turned out to be 2 h and the “Time of peak plasma concentration” value was “already peaked at one hour”. Besides, the Brain penetration result in data set [3] (rat, in vivo) is recorded as “readily penetrates the brain”. For the same compound, in data set [4] (EME (10 mg/kg) combined with scopolamine (1 mg/kg), single dose, group size 10), the “Morris water maze probe test, group result, reversal of scopolamine impairment” value was “reversed the scopolamine effect; also recorded: restore function impaired by scopolamine”. The “Morris water maze probe test, group result versus controls” value in data set [4] (EME alone, single dose, normal healthy rats, group size 10) is on record as “no effect on its own”. For the same compound, the “Morris water maze individual swimming trace, finding of target area” value in data set [4] is given as “found the target area”. Moreover, the Kd in data set [1] (setting [8]) is 0.8 to 12.7 µM. In addition, in data set [5], the concentration ratio (Kp) is about 10. Moreover, the “Alleviation of cocaine inhibition of the nicotinic acetylcholine receptor” value in data set [6] (cocaine present (200 μM for EME)) is listed as “Alleviation of cocaine inhibition”.

For the compound `CN1C2CCC1C(C(=O)O)C(c1ccc(Cl)cc1)C2` (stereo not shown) [RTI Compound], the equilibrium dissociation constant (Kd) is 0.7 to 14 µM in data set [1] (setting [8]) and 0.7 µM in data set [1] (read-out: KD(alv), unit inferred).

Regarding `COC(=O)C1=C(c2ccccc2)C(=O)C2CC(S(=O)(=O)c3ccccc3)C1N2C` (stereo not shown) [RCS-111-202A], in data set [1] (setting [7]), the Kd was 2.8 µM.

For “aptamer 3: Class 2 RNA aptamer, SEQ ID NO:56 (AGUAGGAAUACCCCCAUCCAAAGCUCGCUAGGCUGAACAC; RNA, backbone not given here)”, the “Effect on whole-cell current generated by carbamoylcholine” value in data set [6] (5 μM aptamer, −60 mV, 22° C., pH 7.4, no inhibitor) was “no effect”.

`CN1C2CCC1C(C(=O)O)C(O)C2` (stereo not shown) [Ecgonine, ecgonine]: in data set [1] (setting [8]), the Kd is 3.5 µM.

As for `CN1[C@@H]2C[C@@H](OC(=O)[C@H](CO)c3ccccc3)C[C@H]1[C@@H]1O[C@@H]12` [scopolamine, reference compound], the “Morris water maze individual swimming trace, finding of target area” value in data set [4] is given as “showed no preference”. For the same compound, the “Morris water maze probe test, group result” value in data set [4] (scopolamine alone (1 mg/kg), group size 10, p<0.05) was “showed the impairment”.

In the case of `CN1C2CC(S(=O)(=O)c3ccccc3)C1C(C(=O)O)=C(c1ccccc1)C2=O` (stereo not shown) [RCS-111-218], the Kd in data set [1] (setting [7]) was 5 µM.

With `CN1C2CC(S(=O)(=O)c3ccccc3)C1C(C(=O)O)=CC2=O` (stereo not shown) [RCS-111-143], the Kd in data set [1] (setting [7]) is 3.3 µM.

For the compound `COC(=O)C1=CC(=O)C2CC(S(=O)(=O)c3ccccc3)C1N2C` (stereo not shown) [RCS-111-140A], the equilibrium dissociation constant (Kd) is 0.8 to 8.2 µM in data set [1] (setting [7]) and 0.8 µM in data set [1] (unit inferred, read-out: KD(alv)).

In general, Kd refers to the equilibrium constant for the complex coming apart. By Kp is commonly meant tissue or fluid exposure divided by exposure in the circulation.

(Values after patent US20160193202A1, “THERAPEUTIC TREATMENT FOR DRUG POISONING AND ADDICTION” (ADISPELL, INC., priority 2013, published 2016).)
